{
  "source": "ChEMBL document CHEMBL2176932",
  "about": "“De novo cyclic pseudopeptides containing aza-β3-amino acids exhibiting antimicrobial activities” (J Med Chem, 2012)",
  "key": {"[1]": {"assay": "Selectivity ratio of MHC for sheep RBC to MIC for Staphylococcus aureus ATCC 25923", "assay_type": "functional"}, "Pseudomonas aeruginosa": {"system": "Pseudomonas aeruginosa", "assay": "Antibacterial activity against Pseudomonas aeruginosa ATCC 27853 after 48 hrs by microtiter broth dilution method", "assay_type": "functional", "settings": "ATCC 27853, 48 h"}, "[2]": {"assay": "Selectivity ratio of HC50 for sheep RBC to MIC for Escherichia coli ATCC 25922", "assay_type": "functional"}, "[3]": {"assay": "Toxicity in sheep RBC assessed as hemolytic activity after 1 hr", "assay_type": "cell-based, Ovis aries, Erythrocyte", "settings": "sheep red blood cells"}, "[4]": {"assay": "Selectivity ratio of MHC for sheep RBC to MIC for Listeria monocytogenes SOR 100", "assay_type": "functional"}, "Listeria monocytogenes": {"system": "Listeria monocytogenes", "assay": "Antibacterial activity against Listeria monocytogenes SOR 100 after 48 hrs by microtiter broth dilution method", "assay_type": "functional", "settings": "SOR 100, 48 h"}, "Klebsiella oxytoca": {"system": "Klebsiella oxytoca", "assay": "Antibacterial activity against Klebsiella oxytoca CIP 7932 after 48 hrs by microtiter broth dilution method", "assay_type": "functional", "settings": "CIP 7932, 48 h"}, "[5]": {"assay": "Selectivity ratio of HC50 for sheep RBC to MIC for Staphylococcus aureus ATCC 25923", "assay_type": "functional"}, "Klebsiella aerogenes": {"system": "Klebsiella aerogenes", "assay": "Antibacterial activity against Enterobacter aerogenes ATCC 13048 after 48 hrs by microtiter broth dilution method", "assay_type": "functional", "settings": "ATCC 13048, 48 h"}, "[6]": {"assay": "Half life in bovine serum", "assay_type": "ADME, cell-free, Bos taurus", "settings": "cattle"}, "Salmonella enterica": {"system": "Salmonella enterica", "assay": "Antibacterial activity against Salmonella enterica ATCC 13076 after 48 hrs by microtiter broth dilution method", "assay_type": "functional", "settings": "ATCC 13076, 48 h"}, "Aeromonas caviae": {"system": "Aeromonas caviae", "assay": "Antibacterial activity against Aeromonas caviae ATCC 15648 after 48 hrs by microtiter broth dilution method", "assay_type": "functional", "settings": "ATCC 15648, 48 h"}, "Staphylococcus aureus": {"system": "Staphylococcus aureus", "assay": "Antibacterial activity against Staphylococcus aureus ATCC 25923 after 48 hrs by microtiter broth dilution method", "assay_type": "functional", "settings": "ATCC 25923, 48 h"}, "Micrococcus luteus": {"system": "Micrococcus luteus", "assay": "Antibacterial activity against Micrococcus luteus ATCC 10240 after 48 hrs by microtiter broth dilution method", "assay_type": "functional", "settings": "ATCC 10240, 48 h"}, "Streptococcus equinus": {"system": "Streptococcus equinus", "assay": "Antibacterial activity against Streptococcus equinus ATCC 5623 after 48 hrs by microtiter broth dilution method", "assay_type": "functional", "settings": "ATCC 5623, 48 h"}, "Enterococcus faecalis": {"system": "Enterococcus faecalis", "assay": "Antibacterial activity against Enterococcus faecalis CIP 186 after 48 hrs by microtiter broth dilution method", "assay_type": "functional", "settings": "CIP 186, 48 h"}, "Lactococcus garvieae": {"system": "Lactococcus garvieae", "assay": "Antibacterial activity against Lactococcus garvieae ATCC 43921 after 48 hrs by microtiter broth dilution method", "assay_type": "functional", "settings": "ATCC 43921, 48 h"}, "[7]": {"assay": "Toxicity in sheep RBC assessed as minimal hemolytic concentration after 1 hr", "assay_type": "cell-based, Ovis aries", "settings": "erythrocyte"}, "Escherichia coli": {"system": "Escherichia coli", "assay": "Antibacterial activity against Escherichia coli ATCC 25922 after 48 hrs by microtiter broth dilution method", "assay_type": "functional", "settings": "ATCC 25922, 48 h"}, "Priestia megaterium": {"system": "Priestia megaterium", "assay": "Antibacterial activity against Bacillus megaterium ATCC 10778 after 48 hrs by microtiter broth dilution method", "assay_type": "functional", "settings": "ATCC 10778, 48 h"}, "[8]": {"assay": "Toxicity in sheep RBC assessed as hemolytic activity at 100 uM after 1 hr", "assay_type": "cell-based, Ovis aries, Erythrocyte", "settings": "sheep red blood cells, read-out: Activity"}},
  "data": [
    {"smiles": "N=C(N)NCCC[C@@H]1NC(=O)CN(CC2CCCCC2)NC(=O)[C@H](Cc2c[nH]c3ccccc23)NC(=O)CN(Cc2ccc(F)cc2)NC(=O)[C@H](Cc2c[nH]c3ccccc23)NC(=O)CN(CCCCN)NC1=O", "values": [
      {"measurement": "Selectivity ratio", "setting": "[1]", "value": 4},
      {"measurement": "MIC", "setting": "Pseudomonas aeruginosa", "value": 50, "unit": "µM"},
      {"measurement": "Selectivity ratio", "setting": "[2]", "value": 4},
      {"measurement": "HC50 at 1 h", "setting": "[3]", "value": "> 100", "unit": "µM"},
      {"measurement": "Selectivity ratio", "setting": "[4]", "value": 16},
      {"measurement": "MIC", "setting": "Listeria monocytogenes", "value": 6.25, "unit": "µM"},
      {"measurement": "MIC", "setting": "Klebsiella oxytoca", "value": 25, "unit": "µM"},
      {"measurement": "Selectivity ratio", "setting": "[5]", "value": 4},
      {"measurement": "MIC", "setting": "Klebsiella aerogenes", "value": 12.5, "unit": "µM"},
      {"measurement": "half-life", "setting": "[6]", "value": "> 120", "unit": "min"},
      {"measurement": "MIC", "setting": "Salmonella enterica", "value": 25, "unit": "µM"},
      {"measurement": "MIC", "setting": "Aeromonas caviae", "value": "> 100", "unit": "µM"},
      {"measurement": "MIC", "setting": "Staphylococcus aureus", "value": 25, "unit": "µM"},
      {"measurement": "MIC", "setting": "Micrococcus luteus", "value": 3.12, "unit": "µM"},
      {"measurement": "MIC", "setting": "Streptococcus equinus", "value": 6.25, "unit": "µM"},
      {"measurement": "MIC", "setting": "Enterococcus faecalis", "value": 50, "unit": "µM"},
      {"measurement": "MIC", "setting": "Lactococcus garvieae", "value": 25, "unit": "µM"},
      {"measurement": "MHC", "setting": "[7]", "value": 100, "unit": "µM"},
      {"measurement": "MIC", "setting": "Escherichia coli", "value": 25, "unit": "µM"},
      {"measurement": "MIC", "setting": "Priestia megaterium", "value": 1.56, "unit": "µM"},
      {"measurement": "hemolysis at 1 h, 100 µM", "setting": "[8]", "value": 2.5, "unit": "%"}
    ]}
  ]
}
